According to US20120259123A1, “AMINOPYRIDINE COMPOUND” (UBE INDUSTRIES, LTD., priority 2009, published 2012):
Where a name gives a salt, the structure may show the parent alone.

Assays:
human EP2 receptor [1] = biological target: T1, human EP2 receptor (Homo sapiens, UniProt P43116); experiment: Measurement of EP2 receptor binding affinity ([3H]PGE2 displacement); conditions: read-out: Ki value of EP2 receptor binding affinity
T1 construct: purchased Euroscreen S.A. ES-562-M; host or cells: HEK293 cells
T1 sequence (P43116 whole entry): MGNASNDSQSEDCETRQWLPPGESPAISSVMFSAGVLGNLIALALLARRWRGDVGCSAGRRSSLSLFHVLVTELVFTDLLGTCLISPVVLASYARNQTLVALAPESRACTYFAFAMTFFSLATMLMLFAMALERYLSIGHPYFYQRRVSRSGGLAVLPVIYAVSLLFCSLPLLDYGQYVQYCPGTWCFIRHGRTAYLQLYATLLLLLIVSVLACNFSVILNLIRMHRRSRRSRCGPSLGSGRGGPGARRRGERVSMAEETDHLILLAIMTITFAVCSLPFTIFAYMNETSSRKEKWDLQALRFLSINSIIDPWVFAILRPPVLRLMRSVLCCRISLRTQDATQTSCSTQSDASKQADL
Procedure: (§1) Measurement of EP2 receptor binding affinity was carried out according to the method of Abramovitz et al. (Biochimica et Biophysica Acta, 1483, 285 (2000)). […] The membrane fraction was recovered on glass fiber filter paper (GF/B, available from Whatman PLC) using a cell harvester […], available from Brandel Inc.), and after washing with a buffer solution (10 mM MES-KOH (pH 6.0), 10 mM MgCl2), radioactivity was measured with a liquid scintillation analyzer (2000CA, available from Packard). […] The dissociation constant (Kd value) was calculated by Scatchard analysis.

human EP2 receptor [2] = biological target: T1, human EP2 receptor; experiment: Measurement of EP2 agonist activity (cAMP amount in cells); format: cell-based; conditions: HEK 293 cells expressing human EP2 receptor, cAMP increase, 30 minutes
Procedure: Measurement of EP2 agonist activity was carried out according to the method of Wilson et al. (European Journal of Pharmacology, 501, 49 (2004)). […] On the next day, the medium was replaced with serum-free MEM medium containing 3-isobutyl-1-methylxanthine (final concentration: 500 μM) and after culturing for 30 minutes, a test compound dissolved in dimethylsulfoxide was added and the medium was allowed to stand in a carbon dioxide gas incubator. After 30 minutes, an amount of cAMP in the cells was measured with a cAMP Biotrak EIA System kit (available from GE Healthcare Bioscience).

human EP1 receptor = biological target: T2, human EP1 receptor (Homo sapiens, UniProt P34995); experiment: Measurement of EP1 receptor binding affinity ([3H]PGE2 displacement); conditions: membrane fraction of Chem-1 cells expressing human EP1 receptor, [3H]PGE2 10 nM
T2 sequence (P34995 1-402): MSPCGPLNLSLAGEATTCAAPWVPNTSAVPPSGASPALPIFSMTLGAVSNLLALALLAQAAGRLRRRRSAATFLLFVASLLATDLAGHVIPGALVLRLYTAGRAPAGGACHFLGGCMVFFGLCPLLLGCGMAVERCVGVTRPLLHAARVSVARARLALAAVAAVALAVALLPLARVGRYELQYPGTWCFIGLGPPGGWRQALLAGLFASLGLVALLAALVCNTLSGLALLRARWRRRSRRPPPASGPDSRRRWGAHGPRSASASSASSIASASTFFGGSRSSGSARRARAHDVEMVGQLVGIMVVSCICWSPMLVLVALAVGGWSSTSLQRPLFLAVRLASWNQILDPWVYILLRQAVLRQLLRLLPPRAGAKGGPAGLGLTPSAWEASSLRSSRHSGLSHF
Procedure: as §1, with “EP1” for “EP2”, “PLC) pretreated with 0.3% polyethyleneimine by” for “PLC)”

Ki (human EP2 receptor [1]) | EC50 (human EP2 receptor [2]) | Compound | Ki (human EP1 receptor)
1.8 nM | 6 nM | CCCCC(C)(C)c1ccc(CN(Cc2cccc(NCC(=O)O)n2)S(=O)(=O)c2ccc(F)cc2)s1 [Example 3, (6-{(4-Fluorobenzenesulfonyl)[5-(1,1-dimethylpentyl)thiophen-2-ylmethyl]aminomethyl}pyridin-2-ylamino)acetic acid] | –
3.4 nM | 7 nM | CCC(C)(C)c1ccc(CN(Cc2cccc(NCC(=O)O)n2)S(=O)(=O)c2ccccn2)s1 [Example 4, {6-[(5-tert-Pentylthiophen-2-ylmethyl)(pyridin-2-ylsulfonyl)aminomethyl]pyridin-2-ylamino}acetic acid] | –
– | 2.6 nM | CC1(c2ccc(CN(Cc3cccc(NCC(=O)O)n3)S(=O)(=O)c3cccnc3)cc2)CC1 [Example 5, (6-{[4-(1-Methylcyclopropyl)benzyl](pyridin-3-ylsulfonyl)aminomethyl}pyridin-2-ylamino)acetic acid hydrochloride] | –
– | 5.4 nM | CCC1(c2ccc(CN(Cc3cccc(NCC(=O)O)n3)S(=O)(=O)c3ccccn3)cc2)CC1 [Example 6, (6-{[4-(1-Ethylcyclopropyl)benzyl](pyridin-2-ylsulfonyl)aminomethyl}pyridin-2-ylamino)acetic acid] | –
8.3 nM | 4.5 nM | CCC1(c2ccc(CN(Cc3cccc(NCC(=O)O)n3)S(=O)(=O)c3cccnc3)cc2)CC1 [Example 7, (6-{[4-(1-Ethylcyclopropyl)benzyl](pyridin-3-ylsulfonyl)aminomethyl}pyridin-2-ylamino)acetic acid] | –
11 nM | 4.2 nM | CCCCC1(c2ccc(CN(Cc3cccc(NCC(=O)O)n3)S(=O)(=O)c3cccnc3)cc2)CC1 [Example 10, 6-{[4-(1-Butylcyclopropyl)benzyl](pyridin-3-ylsulfonyl)aminomethyl}pyridin-2-ylamino)acetic acid hydrochloride] | –
– | 8 nM | CCC1(c2ccc(CN(Cc3cccc(NCC(=O)O)n3)S(=O)(=O)c3ccc(F)cc3)cc2)CC1 [Example 14, (6-{[4-(1-Ethylcyclopropyl)benzyl](4-fluorobenzenesulfonyl)aminomethyl}pyridin-2-ylamino)acetic acid] | –
6.1 nM | 6.3 nM | CCCCC1(c2ccc(CN(Cc3cccc(NCC(=O)O)n3)S(=O)(=O)c3ccncc3)cc2)CC1 [Example 16, (6-{[4-(1-Butylcyclopropyl)benzyl](pyridin-4-ylsulfonyl)aminomethyl}pyridin-2-ylamino)acetic acid] | –
– | 4.3 nM | CC(C)(C)c1ccc(CN(Cc2cccc(NCC(=O)O)n2)S(=O)(=O)c2ccccc2)cc1 [Example 21, {6-[(Benzenesulfonyl)(4-tert-butylbenzyl)aminomethyl]pyridin-2-ylamino}acetic acid hydrochloride] | –
– | 2.7 nM | CC(C)(C)c1ccc(CN(Cc2cccc(NCC(=O)O)n2)S(=O)(=O)c2ccccn2)cc1 [Example 23, {6-[(4-tert-Butylbenzyl)(pyridin-2-ylsulfonyl)aminomethyl]pyridin-2-ylamino}acetic acid hydrochloride] | –
– | 4.5 nM | CCCC=C(C)c1ccc(CN(Cc2cccc(NCC(=O)O)n2)S(=O)(=O)c2ccccn2)cc1 [Example 24, (6-{[4-(1-Methyl-1-pentenyl)benzyl](pyridin-2-ylsulfonyl)aminomethyl}pyridin-2-ylamino)acetic acid] | –
– | 6.9 nM | CCC(CC)c1ccc(CN(Cc2cccc(NCC(=O)O)n2)S(=O)(=O)c2cccnc2)cc1 [Example 27, (6-{[4-(1-Ethylpropyl)benzyl](pyridin-3-ylsulfonyl)aminomethyl}pyridin-2-ylamino)-acetic acid] | –
9.8 nM | 6.4 nM | CCC(C)(C)c1ccc(CN(Cc2cccc(NCC(=O)O)n2)S(=O)(=O)c2ccccn2)cc1 [Example 28, {6-[(4-tert-Pentylbenzyl)(pyridin-2-ylsulfonyl)aminomethyl]pyridin-2-ylamino}acetic acid hydrochloride] | –
– | 5 nM | CC(C)(C)Cc1ccc(CN(Cc2cccc(NCC(=O)O)n2)S(=O)(=O)c2ccccn2)cc1 [Example 29, {6-[(4-Neopentylbenzyl)(pyridin-2-ylsulfonyl)aminomethyl]pyridin-2-ylamino}acetic acid hydrochloride] | –
8.3 nM | 2.7 nM | CC(C)(C)c1ccc(CN(Cc2cccc(NCC(=O)O)n2)S(=O)(=O)c2ccc(F)cc2)cc1 [Example 30, {6-[(4-tert-Butylbenzyl)(4-fluorobenzenesulfonyl)aminomethyl]pyridin-2-ylamino}-acetic acid hydrochloride] | –
8.6 nM | 6.1 nM | CC(C)(C)c1ccc(CN(Cc2cccc(NCC(=O)O)n2)S(=O)(=O)c2cccc(F)c2)cc1 [Example 31, {6-[(4-tert-Butylbenzyl)(3-fluorobenzenesulfonyl)aminomethyl]pyridin-2-ylamino}-acetic acid hydrochloride] | –
4.4 nM | 4.4 nM | CC(C)(C)c1ccc(CN(Cc2cccc(NCC(=O)O)n2)S(=O)(=O)c2ccc(Cl)cc2)cc1 [Example 33, {6-[(4-tert-Butylbenzyl)(4-chlorobenzenesulfonyl)aminomethyl]pyridin-2-ylamino}-acetic acid hydrochloride] | –
– | 2.8 nM | CC(C)(C)c1ccc(CN(Cc2cccc(NCC(=O)O)n2)S(=O)(=O)c2cccnc2)cc1 [Example 35, {6-[(4-tert-Butylbenzyl)(pyridin-3-ylsulfonyl)aminomethyl]pyridin-2-ylamino}acetic acid hydrochloride] | –
5.3 nM | 2.8 nM | CCCCC(C)c1ccc(CN(Cc2cccc(NCC(=O)O)n2)S(=O)(=O)c2ccccn2)cc1 (stereo not drawn) [Example 40, (6-{[4-(1-Methylpentyl)benzyl](pyridin-2-ylsulfonyl)aminomethyl}pyridin-2-ylamino)-acetic acid] | –
3.6 nM | – | CCCCC(C)(C)c1ccc(CN(Cc2cccc(NCC(=O)O)n2)S(=O)(=O)c2ccncc2)cc1 [Example 43, (6-{[4-(1,1-Dimethylpentyl)benzyl](pyridin-4-ylsulfonyl)aminomethyl}pyridin-2-ylamino)acetic acid] | –
3.3 nM | – | CCCCC(C)(C)c1ccc(CN(Cc2cccc(NCC(=O)O)n2)S(=O)(=O)c2cccnc2)cc1 [Example 46, (6-{[4-(1,1-Dimethylpentyl)benzyl](pyridin-3-ylsulfonyl)aminomethyl}pyridin-2-ylamino)acetic acid] | –
6.4 nM | – | CCCCC(C)(C)c1ccc(CN(Cc2cccc(NCC(=O)O)n2)S(=O)(=O)c2cccs2)cc1 [Example 48, (6-{[4-(1,1-Dimethylpentyl)benzyl](thiophen-2-ylsulfonyl)aminomethyl}pyridin-2-ylamino)acetic acid] | –
2.1 nM | 7 nM | CCCCC(C)(C)c1ccc(CN(Cc2cccc(NCC(=O)O)n2)S(=O)(=O)c2ccccn2)c(F)c1 [Example 55, (6-{[2-Fluoro-4-(1,1-dimethylpentyl)benzyl](pyridin-2-ylsulfonyl)aminomethyl}pyridin-2-ylamino)acetic acid] | –
– | 5.5 nM | CCCCC(C)(C)c1ccc(CN(Cc2cccc(NCC(=O)O)n2)S(=O)(=O)c2cccc(F)c2)cc1 [Example 60, (6-{(3-Fluorobenzenesulfonyl)[4-(1,1-dimethylpentyl)benzyl]aminomethyl}pyridin-2-ylamino)acetic acid] | –
– | – | CCCCC[C@H](O)/C=C/[C@H]1[C@H](O)CC(=O)[C@@H]1C/C=C\CCCC(=O)O [PGE2, Prostaglandin E2, reference compound] | 9 nM
